{"source": "patent US5932717A", "about": "“Methods of obtaining DNA-RNA hybrids from sturgeon milt” (priority 1994, dated 1999)", "key": {"MT-4 cell": {"test_system": "MT-4 cell", "conditions": "MT-4, 5 ug/ml", "procedure": "(§1) The cells.--A continuous lymphoblast line of MT-4 cells was used in the study. The cells were propagated in a concentration of 0.2×10^6 cells/ml in RPMI-1640 medium with 15% fetal calf serum, 300 μg/ml L-glutamine and 100 μg/ml gentamycine. The cells were cultivated in suspension in 24-well plates of NUNCLON Company.\n(§2) The viability of the cells was determined by staining with 0.4% trypan blue.\n(§3) Cytotoxicity of the preparations was determined in 24-well plastic plates. Each well of the panel was filled with 1 ml of cell suspension in a concentration 0.2×10^6 cells/ml after which to different wells various doses of chemopreparations were added: 1600, 1000, and 400 μg/ml. After treatment of the cells with the chemopreparations the panels with the cells were placed into a thermostat and incubated at 37° C. in an atmosphere of 5% CO2 and 98% humidity for 3-5 days. At the end of this term the results were read by the number of live and dead cells in the individual wells of the plate."}, "in vitro": {"assay": "in vitro", "conditions": "human, mt-4 cells", "procedure": "as §1, §2, §3"}}}
{"compound": "Cc1cn([C@H]2C[C@H](N=[N+]=[N-])[C@@H](CO)O2)c(=O)[nH]c1=O", "note": "[Azidothymidine, azidothymidine]", "values": [{"measurement": "Cell concentration per ml × 10^6", "setting": "MT-4 cell; cell control 0.56", "value": 0.16, "unit": "per ml × 10^6"}, {"measurement": "Proliferation index", "setting": "MT-4 cell; cell control 2.80", "value": 1.0}, {"measurement": "viability", "setting": "in vitro", "value": 17.5, "unit": "%"}]}
